Source: ChEMBL document CHEMBL1147163 (Bioorg Med Chem, 2007)

Experiment: Inhibition of rat microsomal VKER

| IC50 [µM] | SMILES |
| --- | --- |
| 18.3 | CC(=O)CC(c1ccccc1)c1c(S)c2ccccc2oc1=O (stereo unspecified) |
| 0.13 | CC(C)=CCC/C(C)=C/CC/C(C)=C/CC1=C(O)c2ccccc2C(=O)C1=O |
| 3.1 | O=c1oc2ccccc2c(O)c1Cc1c(O)c2ccccc2oc1=O [DICUMAROL] |
| 79 | CC(C)=CCc1c(O)c2ccccc2oc1=O [ISOPRENYLCOUMARIN] |
| 0.77 | CC(=O)CC(c1ccc([N+](=O)[O-])cc1)c1c(O)c2ccccc2oc1=O (stereo unspecified) [ACENOCOUMAROL] |
| > 500 | CC(=O)CC(c1ccccc1)c1cc2ccccc2oc1=O (stereo unspecified) |
| 12.8 | CC(=O)CC(c1ccccc1)c1c(O)oc2ccc(O)cc2c1=O (stereo unspecified) |
| 3 | CC(=O)CC(C1=C(O)c2ccccc2C1=O)c1ccccc1 (stereo unspecified) |
| > 500 | CC(=O)CC(c1ccccc1)c1c(Cl)c2ccccc2oc1=O (stereo unspecified) |
| 0.34 | CC(C)=CCC/C(C)=C/CC/C(C)=C/Cc1c(O)c2cc(C)c(C)cc2oc1=O [DIMETHYLFERULENOL] |
| 0.9 | CCCCCCCC/C=C\CCCCCCCCc1c(O)c2ccccc2oc1=O |
| 250 | CC(=O)CC(c1ccccc1)c1c(O)oc2cc(O)ccc2c1=O (stereo unspecified) |
| 1.8 | CCC(c1ccccc1)c1c(O)c2ccccc2oc1=O (stereo unspecified) [PHENPROCOUMON] |
| > 500 | CC(=O)CC(c1ccccc1)c1c(SC[C@@H](NC(C)=O)C(=O)O)c2ccccc2oc1=O (stereo partly specified) |

| SMILES | IC50 [µM] |
| --- | --- |
| COc1c(C(CC(C)=O)c2ccccc2)c(=O)oc2ccccc12 (stereo unspecified) | > 500 |
| CC(C)=CCC/C(C)=C/CC/C(C)=C/Cc1c(O)c2ccccc2oc1=O | 0.098 |
| CC(=O)CC(c1ccccc1)c1c(O)c2ccccc2oc1=O (stereo unspecified) [WARFARIN] | 2.2 |
| CC(=O)CC(c1ccccc1)c1c(OS(=O)(=O)C(F)(F)F)c2ccc(O)cc2oc1=O (stereo unspecified) [WARFARIN TRIFLATE] | > 500 |
| O=c1oc2ccccc2c(O)c1C1CC(c2ccc(-c3ccc(Br)cc3)cc2)Cc2ccccc21 (stereo unspecified) [BRODIFACOUM] | 0.15 |
| CC(O)CC(c1ccccc1)c1c(O)c2ccccc2oc1=O (stereo unspecified) [WARFARIN ALCOHOL] | 12.5 |

Experiment: Dissociation constant, pKa of the compound
Format: physicochemical

| pKa | SMILES |
| --- | --- |
| 6.6 | CC(=O)CC(c1ccccc1)c1c(S)c2ccccc2oc1=O (stereo unspecified) |
